Assay results: patent US9475841B2, “Melanoma antigen peptide and uses thereof” (INSERM (INSTITUT NATIONAL DE LA SANTE ET DE LA RECHERCHE …, priority 2012, dated 2016)

Columns and labels:
Format in all cases: cell-based, human
[1] = tested on: MELOE-1 specific CD4 T cells; assay: MELOE-1 CD4+ T cell responses in PBMC from melanoma patients: restimulation with peptides, CD4/IFN-γ (Th1) and CD4/IL4 (Th2) staining; conditions: for mean % of cytokine producing CD4 T cells, in positive microcultures (IFN-γ): Th1; for mean % of cytokine producing CD4 T cells, in positive microcultures (IL4): Th2; for Th1 responses (IFN-γ positive microcultures) / Th2 responses (IL4 positive microcultures): positive/tested microcultures
Experimental: PBMC from melanoma patients were stimulated with 10 μM of MELOE-1. After 14 days, the presence of CD4 T cells specific for the different regions of MELOE-1 was assessed by restimulating cells with MELOE-12-21, MELOE-111-30 and MELOE-122-46 peptides, followed by CD4/IFN-γ double staining for the detection of Th1 responses, and by CD4/IL4 double staining for Th2 responses. Between brackets is indicated the mean % of cytokine producing CD4 T cells, in positive microcultures.
(§1) PBMC from healthy donors or melanoma patients (2·10^5 cells/well) were cultured for 14 days with 10 μM of MELOE-1 whole antigen (46 amino acids) in RPMI medium supplemented with 8% HS, 50 IU/ml of rIL-2 (Chiron, France) and L-Glutamin, in 96-well multiplates. Microcultures were then restimulated individually with each overlapping peptide (MELOE-12-21, MELOE-111-30, MELOE-118-37, MELOE-12646 or MELOE-122-46 for melanoma patients) in the presence of 10 μg/mL brefeldin A for 5 hours and the percentage of CD4^+ specific T cells was assessed by TNF-α, IFN-γ or IL-4 intracellular staining. A negative control without peptide was included in all experiments.
In order to confirm the immunogenicity of each MELOE-1 regions in melanoma patients, we stimulated melanoma patients PBMC with the MELOE-1 whole protein, and tested the reactivity of stimulated lymphocytes towards the three most immunogenic regions: 2-21, 11-30, and 22-46. For this study, instead of challenging microcultures with the 18-37 peptide, that appeared poorly immunogenic, we extended the C-terminus region from 26-46 to 22-46, in order to also detect responses to our previously described HLA-DR11-restricted epitope (24-37). […] We tested the induction of CD4 specific responses from MELOE-1 stimulated PBMC of […] melanoma patients. We documented CD4 responses specific for the central region of MELOE-1 (11-30) for 7/9 patients, whereas responses specific for MELOE-12-21 and MELOE-122-46 were respectively detected in 4/9 and 5/9 patients (Table III). These responses were mainly Th1 responses (IFN-g production) while less frequent Th2 responses specific for the three regions of MELOE-1 were detected in 3/9 patients for MELOE-12-21, 2/9 patients for MELOE-111-30 and 5/9 patients for MELOE-122-46 (Table III). […] Concerning Th2 responses, much less frequent, the C-term region appeared to induce more frequently the growth of IL-4 producing CD4 T cells than the two other regions (FIG. 2A). […] In summary, stimulation of patient's PBMC with MELOE-1 induced Th1 responses specific for diverse epitopes located all along the protein sequence, and among the different regions, the central region (11-30) and the C-term region (22-46) appeared to be especially immunogenic in term of frequency of responses.

[2] = tested on: MELOE-1 specific CD4+ T cells; assay: MELOE-1 CD4+ T cell responses in PBMC from healthy donors: restimulation of microcultures with overlapping peptides, CD4/TNF-α staining; conditions: for Microcultures containing MELOE-1 specific CD4+ T cells (TNF-α production): positive/tested microcultures; for donors in which CD4 responses against the region were detected: seven healthy donors
Experimental: PBMC from healthy donors were stimulated with 10 μM of MELOE-1. After 14 days, the presence of CD4 T cells specific for the different regions of MELOE-1 was assessed by restimulating cells with MELOE-12-21, MELOE-111-30, MELOE-118-37 and MELOE-126-46 peptides, followed by CD4/TNF-α double staining and flow cytometry analysis. Between brackets is indicated the mean % of TNF-α producing CD4 T cells, in positive microcultures. NA: not available.
as §1
Our purpose was to look for the existence of class II helper epitopes all along MELOE-1 sequence (SEQ ID NO:20), in order to document the immunogenicity of the different regions of this melanoma antigen. We stimulated 2·10^7 PBMC from seven healthy donors with MELOE-1 whole antigen and tested, after a 14-day culture period the presence of CD4 T cells specific for each region of the protein. Microcultures were screened for TNFα production by CD4+ T cells, after restimulation with four MELOE-1 derived overlapping peptides (Table I), in an autopresentation assay. […] On the contrary, the central region 18-37, containing an already described DR11-restricted epitope (24-37) located just at the end of this 20-mer peptide (Rogel et al., 2011), induced specific responses in microcultures deriving from only 2/7 donors (HD9 and HD17, both expressing the DR11 element). In these two donors, we detected 6 and 7% of positive microcultures, containing between 0.6 to 3.7% of TNFα producing CD4 T cells.

[3] = tested on: CD4 T cell clone 4E2-DQβ1*0201; assay: Cytokine profile of CD4 T cell clone stimulated with cognate peptide (intracellular staining); conditions: cognate peptide 10 μM, 5 hours
Experimental: Lymphocytes were stimulated for 5 hours in the presence of brefeldin A (10 μg/mL) either with peptide alone (10 μM) in an autopresentation assay or with B-EBV or HLA-class II expressing melanoma cells pulsed 2 hours with the cognate peptide, at a ratio 1:2. In some experiments, blocking mAb against HLA-DP (clone B7.21 from Dr Charron, UMR940, Paris), HLA-DQ (clone SPVL3, Beckman Coulter) or HLA-DR (clone L243, BD Biosciences) were added at a concentration of 12.5 μg/ml. Cells were then stained with APC-conjugated anti-CD4 mAb, fixed with 4% paraformaldehyde, labeled with PE-conjugated anti-cytokine mAb and analyzed by flow cytometry.
We also documented the T helper profile of each T cell clone, by stimulating the CD4 T cell clones with the cognate peptide, and analyzing cytokine production. All the clones expressed Th1 cytokines (TNFα, IFNγ, IL2 and GM-CSF). On the contrary, these clones differ in their expression of Th2 cytokines. Indeed, the two DQ2 restricted T cell clones (9C12 and 4E2) and the DR1 restricted one (5F9) also strongly express two Th2 cytokines (IL4, and IL13), whereas the DR11-restricted T cell clone only weakly expressed IL4 (Table IV). None of the CD4 T cell expresses IL10 or IL5 at a significant level.

[4] = donor HD9 (DPβ1*0902/1501, DQβ1*0301, DRβ1*1104/1201)
[5] = donor HD17 (DPβ1*0401/0301, DQβ1*0301/0603, DRβ1*1101/1301)
[6] = donor HD22 (DPβ1*0401/1101, DQβ1*0202, DRβ1*0701)
[7] = donor HD24 (DPβ1*0401/0101, DQβ1*0501/0602, DRβ1*0101/1501)
[8] = donor HD25 (DPβ1*0401/0402, DQβ1*0201, DRβ1*0301)
[9] = donor HD27 (DQβ1*501/0201, DRβ1*0101/0301)

In the case of “AACPPWHPSERISSTLNDECWPASL [MELOE-122-46]”, the “Th1 responses, % of tested microcultures” value ([1]; 576 tested microcultures from melanoma patients, IFN-γ) is reported as 9.6%, the “patients in which Th2 responses were detected” value ([1]; melanoma patients, IL4) is reported as 5/9 and the “patients in which CD4 responses specific for the region were detected” value ([1]; melanoma patients, Table III, Th1 (IFN-γ)) is reported as 5/9. The “mean % of cytokine producing CD4 T cells, in positive microcultures (IFN-γ)” value (from here on “mean % … (IFN-γ)”) ([1]; patient Pt ≠ 1) was “(4.8% ± 7.2)”, the “mean % of cytokine producing CD4 T cells, in positive microcultures (IL4)” value (shortened to “mean % of cytokine producing CD4 T cells … (IL4)”) ([1]; patient Pt ≠ 1) was “(0.8% ± 0.3)” and the “Th1 responses (IFN-γ positive microcultures)” value ([1]; patient Pt ≠ 1) was 11/48. The “Th2 responses (IL4 positive microcultures)” value ([1]; patient Pt ≠ 1) was 4/48, the “mean % … (IFN-γ)” value ([1]; patient Pt ≠ 2) was “(0.6% ± 0.02)” and the “Th1 responses (IFN-γ positive microcultures)” value ([1]; patient Pt ≠ 2) was 2/96. The “Th2 responses (IL4 positive microcultures)” value ([1]; patient Pt ≠ 2) was 0/96, the “Th1 responses (IFN-γ positive microcultures)” value ([1]; patient Pt ≠ 3 (DPβ1*0201/2001, DQβ1*0303/0501, DRβ1*0101/0701)) was 4/96 and the “mean % … (IFN-γ)” value ([1]; patient Pt ≠ 3) was “(1.9% ± 1.3)”. The “Th2 responses (IL4 positive microcultures)” value ([1]; patient Pt ≠ 3) was 0/96, the “Th1 responses (IFN-γ positive microcultures)” value ([1]; patient Pt ≠ 4) was 0/48 and the “Th2 responses (IL4 positive microcultures)” value ([1]; patient Pt ≠ 4) was 0/48. For the same sequence, the “mean % of cytokine producing CD4 T cells … (IL4)” value ([1]; patient Pt ≠ 5) was “(0.8%)”, the “Th1 responses (IFN-γ positive microcultures)” value ([1]; patient Pt ≠ 5) was 0/48 and the “Th2 responses (IL4 positive microcultures)” value ([1]; patient Pt ≠ 5) was 1/48. The “Th1 responses (IFN-γ positive microcultures)” value ([1]; patient Pt ≠ 6) was 0/48, the “Th2 responses (IL4 positive microcultures)” value ([1]; patient Pt ≠ 6) was 0/48 and the “mean % … (IFN-γ)” value ([1]; patient Pt ≠ 7) was “(2.9% ± 3.5)”. For the same sequence, the “mean % of cytokine producing CD4 T cells … (IL4)” value ([1]; patient Pt ≠ 7) was “(1.5% ± 0.7)”, the “Th1 responses (IFN-γ positive microcultures)” value ([1]; patient Pt ≠ 7) was 28/48 and the “Th2 responses (IL4 positive microcultures)” value ([1]; patient Pt ≠ 7) was 7/48. For the same sequence, the “mean % … (IFN-γ)” value ([1]; patient Pt ≠ 8) was “(0.5%)”, the “mean % of cytokine producing CD4 T cells … (IL4)” value ([1]; patient Pt ≠ 8) was “(0.6%)” and the “Th1 responses (IFN-γ positive microcultures)” value ([1]; patient Pt ≠ 8) was 1/48. For the same sequence, the “Th2 responses (IL4 positive microcultures)” value ([1]; patient Pt ≠ 8) was 1/48, the “mean % of cytokine producing CD4 T cells … (IL4)” value ([1]; patient Pt ≠ 9) was “(0.7% ± 0.15)” and the “Th1 responses (IFN-γ positive microcultures)” value ([1]; patient Pt ≠ 9) was 0/48. For the same sequence, the “Th2 responses (IL4 positive microcultures)” value ([1]; patient Pt ≠ 9) was 3/48.

With PSEGAACPPWHPSERISSTL [MELOE-118-37] the “mean % of TNF-α producing CD4 T cells, in positive microcultures” value (“mean % of TNF-α producing CD4 T cells” below) ([2]; donor HD9) was “(1.4% ± 0.6)”, the “Microcultures containing MELOE-1 specific CD4+ T cells (TNF-α production)” value [2, 4] was 6/96 and the “mean % of TNF-α producing CD4 T cells” value ([2]; donor HD17) was “(3% ± 0.7)”. For the same sequence, the “Microcultures containing MELOE-1 specific CD4+ T cells (TNF-α production)” value [2, 5] was 7/96, the “Microcultures containing MELOE-1 specific CD4+ T cells (TNF-α production)” value [2, 6] was 0/96 and the “Microcultures containing MELOE-1 specific CD4+ T cells (TNF-α production)” value [2, 7] was 0/96. The “Microcultures containing MELOE-1 specific CD4+ T cells (TNF-α production)” value [2, 8] was 0/96, the “Microcultures containing MELOE-1 specific CD4+ T cells (TNF-α production)” value [2, 9] was 0/96 and the “Microcultures containing MELOE-1 specific CD4+ T cells (TNF-α production)” value ([2]; donor HD28 (DRβ1*0301)) was 0/48. The “% of positive microcultures” value ([2]; healthy donor HD9 (first of the two donors named)) was 6%, the “% of positive microcultures” value ([2]; healthy donor HD17 (second of the two donors named)) was 7% and the “donors in which CD4 responses against the region were detected” value [2] was 2/7.

PWHPSERISSTLNDECWPASL [MELOE-126-46] was tested, and the “mean % of TNF-α producing CD4 T cells” value ([2]; donor HD9) was “(1.5% ± 0.5)”, the “Microcultures containing MELOE-1 specific CD4+ T cells (TNF-α production)” value [2, 4] was 5/96 and the “mean % of TNF-α producing CD4 T cells” value ([2]; donor HD17) was “(5.2% ± 4.1)”. The “Microcultures containing MELOE-1 specific CD4+ T cells (TNF-α production)” value [2, 5] was 10/96, the “mean % of TNF-α producing CD4 T cells” value ([2]; donor HD22) was “(1% ± 0.1)” and the “Microcultures containing MELOE-1 specific CD4+ T cells (TNF-α production)” value [2, 6] was 2/96. The “Microcultures containing MELOE-1 specific CD4+ T cells (TNF-α production)” value [2, 7] was 0/96, the “mean % of TNF-α producing CD4 T cells” value ([2]; donor HD25) was “(1.1% ± 0.9)” and the “Microcultures containing MELOE-1 specific CD4+ T cells (TNF-α production)” value [2, 8] was 15/96. The “Microcultures containing MELOE-1 specific CD4+ T cells (TNF-α production)” value [2, 9] was 0/96, the “Microcultures containing MELOE-1 specific CD4+ T cells (TNF-α production)” value ([2]; donor HD28 (DRβ1*0301)) was 0/96 and the “donors in which CD4 responses against the region were detected” value [2] was 4 out of 7. The “Cytokine profile: GM-CSF” value [3] was “GM-CSF^high”, the “Cytokine profile: IFN” value [3] was “IFN^high” and the “Cytokine profile: IL2” value [3] was “IL2^high”. The “Cytokine profile: IL4” value [3] was “IL4^high”, the “Cytokine profile: IL5” value [3] was “IL5^low” and the “Cytokine profile: IL10” value [3] was “IL10^neg”. The “Cytokine profile: IL13” value [3] was “IL13^high” and the “Cytokine profile: TNF” value [3] was “TNF^high”.
